Source: paper PMC10222456, “Application of Physiologically Based Pharmacokinetic Modeling to Predict Drug–Drug Interactions between Elexacaftor/Tezacaftor/Ivacaftor and Tacrolimus in Lung Transplant Recipients” (Pharmaceutics, 2023)
Where “and” joins values, the source holds several entries; their conditions need not be identical. Equal values may be shown once. Read-outs that look alike come from different tables or passages of the source.

Assays:
CYP3A [1] = experiment: PBPK simulation of clinical DDI studies (model verification); design: species or system human
Description: For verification simulations, the dose and schedule of drugs were matched to the design of the corresponding clinical DDI study performed in healthy volunteers.
The input parameters of these CYP3A substrates are available in the compound library of Simcyp version 21: SV-Ethinylestradiol and Sim-Midazolam. […] For the ivacaftor–ethinylestradiol situation, ivacaftor 150 mg was administered orally twice daily for 28 days, while ethinylestradiol oral 0.035 mg was administered once daily for 21 days.
The PBPK models for posaconazole and voriconazole as CYP3A inhibitors were built according to the publications by Hong and Li et al., respectively. For the posaconazole–tacrolimus DDI study, posaconazole was administered orally at a dose of 400 mg twice daily for 7 days, and a single oral dose of tacrolimus 0.05 mg/kg was administered on day 7. For the voriconazole–tacrolimus DDI, voriconazole was administered orally at a dose of 400 mg twice daily for the first day, followed by 200 mg twice daily for the next 6 days, and a single oral dose of tacrolimus 0.1 mg/kg was administered on day 7.
To quantify the DDIs, the geometric mean ratios of AUC or Cmax in the presence or absence of CYP3A modulators were determined. The assessment of the DDI prediction success was based on whether predictions fell within a twofold range of the observed data.

CYP3A [2] = settings: cited from earlier work; for AUC ratio: co-administration with posaconazole 400 mg twice daily
[3] = cited from earlier work
CYP3A [4] = tested on: CYP3A; design: method as in earlier work; settings: cited from earlier work
[5] = cited from earlier work; remark: listed apart in the source
Caco-2 cell = tested on: Caco-2 cell; design: method as in Gertz et al. [22]; settings: ref Gertz et al. [22]; cited from earlier work
[6] = design: method as in Emoto et al. [25]; settings: ref Emoto et al. [25], cited from earlier work
CYP3A4 [7] = target: CYP3A4 (Homo sapiens, UniProt P08684); design: method as in Dai et al. [23]; settings: ref Dai et al. [23], cited from earlier work
CYP3A5 = tested on: CYP3A5; design: method as in Dai et al. [23]; settings: ref Dai et al. [23], cited from earlier work
[8] = cited from earlier work; remark: listed apart in the source
[9] = cited from earlier work; remark: listed apart in the source
[10] = Clinical case series: tacrolimus trough levels before and after starting ETI in CF lung transplant recipients; type: in vivo, human
Description: This was an IRB-approved, retrospective, single-center cohort study that reviewed all CF lung transplant recipients prescribed ETI post lung transplantation. Patients were included if they were 18 years of age or older with CF, with at least one F508del mutation/minimal function genotype or a mutation in the CFTR gene that is responsive to ETI based on in vitro data. To evaluate the impact of ETI on tacrolimus exposure, tacrolimus trough levels were recorded before and up to one month after starting ETI. Patients had to be clinically stable, with no significant changes in health status, or initiating new medications known to modulate CYP3A4 and/or P-gp one month before or after starting ETI. Patients lost to follow-up or with missing tacrolimus trough levels were excluded.
Collected data included age, sex, weight, baseline lung function, body mass index, CFTR genotype, additional comorbidities, transplant and ETI start dates, ETI and tacrolimus dosing regimens, concurrent CYP3A4 modulators, and tacrolimus blood levels.
Baseline lung function was defined as the highest forced expiratory volume in one second (FEV1) during the year prior to initiating ETI therapy, obtained from routine pulmonary function tests. Percent predicted FEV1 (ppFEV1) was then extrapolated using the Global Lung Function Initiative 2012 prediction equation [35]. Tacrolimus troughs were measured through routine clinical laboratory blood draws and analyzed by validated immunoturbidometric protocols. To assess the effects of ETI, tacrolimus doses and concentrations within one month before and after ETI start were recorded. The steady state for tacrolimus and ETI were estimated to be attained within four to five half-lives after starting a regimen. Tacrolimus troughs were recorded at least 2–3 days after a dose change and 5–6.5 days post ETI initiation, based on elexacaftor’s longest half-life of the three CFTR modulators. Furthermore, to explore potential variability in the adherence to therapy and the timing of blood draws, tacrolimus trough levels within one month post ETI were averaged. For two patients with a changed tacrolimus dose immediately prior to ETI initiation and without a corresponding trough level, we captured the next most recent dose and trough within a three-month period.
All statistical analyses were performed using GraphPad version 8.0.2, with a two-sided significance value of 0.05.

[11] = PBPK simulation of plasma or blood pharmacokinetics (Simcyp); settings: single dose oral or intravenous, Cmax and AUC
Description: The PBPK models were implemented within the Simcyp Simulator (version 21; Certara, Sheffield, UK). To mimic the CF population, the distribution of ages and proportion of females were corrected to reflect the demographics of the CF population in the default healthy population library file (Sim-Healthy volunteers) provided in Simcyp® [18]. […] Further, the proportion of females was adjusted from 0.32 in the healthy population to 0.48 in CF. For the trial design, we used a population size of 100 (10 trials with 10 subjects in each trial).
Ivacaftor was orally administered under fed conditions to mimic the clinical setting, where a fat-containing food is required for optimal absorption. The simulated data were qualified using the plasma PK data observed in an adult CF population [11].
The whole-blood PK profiles of tacrolimus following single-dose administration (0.05 mg/kg oral or 0.01 mg/kg iv infusion for 4 h) were simulated to verify the performance of the tacrolimus model. Tacrolimus was administered under fasted conditions to mimic the clinical study. The simulated data were qualified using the blood PK data observed in a healthy adult population [24].
The prediction accuracies for the area under the curve (AUC) and maximum plasma concentration (Cmax) values were calculated as a ratio of mean observed over mean predicted values. […]

[12] = cited from earlier work; remark: listed apart in the source
CYP3A4 [13] = settings: set to capture observed DDIs with ketoconazole or rifampin; cited from earlier work
[14] = victim drug +/− ivacaftor 150 mg oral twice daily, healthy volunteers
[15] = tacrolimus 0.05 mg/kg single dose oral, blood, healthy adults
[16] = tacrolimus 0.1 mg/kg single dose iv infusion (4 h), blood, healthy adults
[17] = individual patients 1–13, dose normalized
[18] = ivacaftor 150 mg q12h oral, plasma, adult CF population

Sequence of CYP3A4 (Homo sapiens, UniProt P08684) (P08684 whole entry): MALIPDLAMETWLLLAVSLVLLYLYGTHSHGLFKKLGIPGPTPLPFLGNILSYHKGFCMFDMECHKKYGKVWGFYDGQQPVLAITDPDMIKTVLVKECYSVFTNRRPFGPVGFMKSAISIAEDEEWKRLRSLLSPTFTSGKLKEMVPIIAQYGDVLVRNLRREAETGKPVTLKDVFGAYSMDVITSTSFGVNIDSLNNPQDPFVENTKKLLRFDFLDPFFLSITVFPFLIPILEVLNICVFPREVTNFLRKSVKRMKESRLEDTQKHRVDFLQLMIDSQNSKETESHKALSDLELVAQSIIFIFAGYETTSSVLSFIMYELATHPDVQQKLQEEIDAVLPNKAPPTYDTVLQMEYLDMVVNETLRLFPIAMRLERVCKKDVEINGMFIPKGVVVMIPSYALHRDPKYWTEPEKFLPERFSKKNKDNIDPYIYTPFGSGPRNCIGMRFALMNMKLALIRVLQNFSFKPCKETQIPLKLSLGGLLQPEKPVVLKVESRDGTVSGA

Cc1ncc2n1-c1ccc(Cl)cc1C(c1ccccc1F)=NC2 [midazolam]
AUC Ratio, Ratio (Simulated/Observed) (CYP3A [1]; victim drug +/− ivacaftor): 1.09 | Cmax Ratio, Ratio (Simulated/Observed) (CYP3A [1]; victim drug +/− ivacaftor): 1.09 | AUC ratio (CYP3A [2]): 4.97 | AUC Ratio, Observed GMR (90% CI) (CYP3A [2]; [14]): 1.54 (1.39, 1.69) | Cmax Ratio, Observed GMR (90% CI) (CYP3A [2]; [14]): 1.38 (1.26, 1.52) | oral bioavailability [3]: 31–72%

C#C[C@]1(O)CC[C@H]2[C@@H]3CCc4cc(O)ccc4[C@H]3CC[C@@]21C [ethinylestradiol]
AUC Ratio, Ratio (Simulated/Observed) (CYP3A [1]; victim drug +/− ivacaftor): 1.07 | Cmax Ratio, Ratio (Simulated/Observed) (CYP3A [1]; victim drug +/− ivacaftor): 0.91 | AUC Ratio, Observed GMR (90% CI) (CYP3A [2]; [14]): 1.07 (1.00, 1.14) | Cmax Ratio, Observed GMR (90% CI) (CYP3A [2]; [14]): 1.22 (1.10, 1.36)

CC(C)(CO)c1cc2cc(NC(=O)C3(c4ccc5c(c4)OC(F)(F)O5)CC3)c(F)cc2n1C[C@@H](O)CO [tezacaftor]
effect on the activity of CYP3A (CYP3A [4]): no significant effect

C=CC[C@@H]1/C=C(\C)C[C@H](C)C[C@H](OC)[C@H]2O[C@@](O)(C(=O)C(=O)N3CCCC[C@H]3C(=O)O[C@H](/C(C)=C/[C@@H]3CC[C@@H](O)[C@H](OC)C3)[C@H](C)[C@@H](O)CC1=O)[C@H](C)C[C@@H]2OC [tacrolimus]
dose excreted unchanged in urine [5]: less than 1% | unchanged tacrolimus as share of total radioactivity excreted in feces ([5]; in vivo): less than 1% | Caco-2 permeability (Caco-2 cell): 13.1 10^−6 cm/s | ka (absorption rate constant) ([6]; first-order absorption model): 3.68 h⁻¹ | kin ([6]; minimal PBPK model): 0.68 h⁻¹ | kout ([6]; minimal PBPK model): 0.10 h⁻¹ | Lag time [6]: 0.43 h | Vsac (single adjusted compartment volume) [6]: 10.8 L/kg | fa (fraction available from dosage form) [6]: 1.0 | CYP3A4 Vmax (CYP3A4 [7]; 12-hydroxylation): 0.6 pmol/min/pmol CYP | Km (CYP3A4 [7]; 12-hydroxylation): 290 nM | CYP3A4 Vmax (CYP3A4 [7]; 13-O-desmethylation): 8 pmol/min/pmol CYP | Km (CYP3A4 [7]; 13-O-desmethylation): 210 nM | CYP3A5 Vmax (CYP3A5; 12-hydroxylation): 1.4 pmol/min/pmol CYP | Km (CYP3A5; 12-hydroxylation): 350 nM | CYP3A5 Vmax (CYP3A5; 13-O-desmethylation): 17 pmol/min/pmol CYP | Km (CYP3A5; 13-O-desmethylation): 210 nM | B/P (blood-to-plasma ratio) ([8]; ref Gertz et al. [21]): 35 | Observed AUC (0–108 h) (mean) [9, 15]: 307 ng·h/mL | Observed Cmax (mean) [9, 15]: 37.8 ng/mL | Observed AUC (0–264 h) (mean) [9, 16]: 378 ng·h/mL | Observed Cmax (mean) [9, 16]: 21.4 ng/mL | AUC Ratio, Ratio (Simulated/Observed) (CYP3A [1]; tacrolimus +/− posaconazole): 0.98 | Cmax Ratio, Ratio (Simulated/Observed) (CYP3A [1]; tacrolimus +/− posaconazole): 1.20 | AUC Ratio, Ratio (Simulated/Observed) (CYP3A [1]; tacrolimus +/− voriconazole): 1.07 | Cmax Ratio, Ratio (Simulated/Observed) (CYP3A [1]; tacrolimus +/− voriconazole): 1.00 | predicted AUC and Cmax ratio relative to the observed values (CYP3A [1]; tacrolimus model as victim, DDIs with posaconazole or voriconazole): 0.98 to 1.20 | TAC DN Trough Level, Post-ETI, Median ([10]; N = 13 cohort): 96.12 ng/mL per mg/kg/day | TAC DN Trough Level, Pre-ETI, Median ([10]; N = 13 cohort): 73.41 ng/mL per mg/kg/day | TAC Trough Concentration, Post-ETI, Median ([10]; N = 13 cohort): 9.05 ng/mL | TAC Trough Concentration, Pre-ETI, Median ([10]; N = 13 cohort): 7.50 ng/mL | Percent Difference DN Trough, Median (increase after starting ETI) ([10]; N = 13 cohort, p = 0.0479): 32% | TAC Trough Concentration, Post-ETI ([10]; individual patients 1–13, averaged within one month post ETI): 9.50 ng/mL and 3.40 ng/mL and 8.90 ng/mL and 6.10 ng/mL and 5.58 ng/mL and 6.70 ng/mL and 9.05 ng/mL and 15.70 ng/mL and 14.10 ng/mL and 9.75 ng/mL and 9.73 ng/mL and 8.45 ng/mL and 11.30 ng/mL | Percent Difference DN Trough ([10]; individual patients 1–13, post- vs pre-ETI): 62.10% and −57.76% and 30.93% and −6.95% and −47.69% and 35.60% and 53.90% and 125.51% and 74.90% and 65.49% and 32.22% and −21.64% and 13.23% | TAC Trough Concentration, Pre-ETI ([10]; individual patients 1–13, within one month before ETI start): 5.60 ng/mL and 7.30 ng/mL and 7.10 ng/mL and 6.60 ng/mL and 11.40 ng/mL and 6.90 ng/mL and 8.40 ng/mL and 7.70 ng/mL and 7.50 ng/mL and 10.40 ng/mL | TAC DN Trough Level, Post-ETI [10, 17]: 245.10 ng/mL per mg/kg/day and 19.30 ng/mL per mg/kg/day and 96.12 ng/mL per mg/kg/day and 101.40 ng/mL per mg/kg/day and 42.88 ng/mL per mg/kg/day and 62.88 ng/mL per mg/kg/day and 68.78 ng/mL per mg/kg/day and 162.86 ng/mL per mg/kg/day and 82.64 ng/mL per mg/kg/day and 451.10 ng/mL per mg/kg/day and 193.04 ng/mL per mg/kg/day and 54.29 ng/mL per mg/kg/day and 454.83 ng/mL per mg/kg/day | TAC DN Trough Level, Pre-ETI [10, 17]: 151.20 ng/mL per mg/kg/day and 45.68 ng/mL per mg/kg/day and 73.41 ng/mL per mg/kg/day and 108.97 ng/mL per mg/kg/day and 81.98 ng/mL per mg/kg/day and 46.37 ng/mL per mg/kg/day and 44.69 ng/mL per mg/kg/day and 72.22 ng/mL per mg/kg/day and 47.25 ng/mL per mg/kg/day and 272.58 ng/mL per mg/kg/day and 146.00 ng/mL per mg/kg/day and 69.29 ng/mL per mg/kg/day and 401.70 ng/mL per mg/kg/day | increase in tacrolimus DN trough levels ([10]; patients on a full dose of ETI): 32% | increase in tacrolimus DN trough levels ([10]; subgroup of 4 patients on CYP3A4 modulators and reduced ETI dose): 22% | AUC ratio (CYP3A [2]): 4.58 | AUC Ratio, Observed GMR (90% CI) (CYP3A [2]; tacrolimus +/− posaconazole): 4.5 (4.0, 5.2) | Cmax Ratio, Observed GMR (90% CI) (CYP3A [2]; tacrolimus +/− posaconazole): 2.0 (2.0, 2.4) | AUC Ratio, Observed GMR (90% CI) (CYP3A [2]; tacrolimus +/− voriconazole): 3.0 (2.7, 3.8) | Cmax Ratio, Observed GMR (90% CI) (CYP3A [2]; tacrolimus +/− voriconazole): 2.0 (1.9, 2.5) | increase of tacrolimus concentration (CYP3A [2]; with clarithromycin, despite a 64% reduction in the tacrolimus dose): fourfold | oral bioavailability [3]: < 20% | bioavailability ([3]; significantly affected by the presence of food): 5–93% | ratio of the predicted to observed PK parameters [11]: 0.8–1.3 | Compound type ([12]; ref Gertz et al. [21]): Neutral | Log Po:w ([12]; ref Gertz et al. [21]): 3.3

CC(C)(C)c1cc(C(C)(C)C)c(NC(=O)c2c[nH]c3ccccc3c2=O)cc1O [ivacaftor]
fraction metabolized by CYP3A4 (fmCYP3A4) (CYP3A4 [13]): 98% | fraction of unbound drug in plasma (fu) ([8]; ivacaftor model input): 0.001 | Observed AUC (0–12 h) (mean) [9, 18]: 12,100 ng∙h/mL | Observed Cmax (mean) [9, 18]: 1270 ng/mL | Tmax ([3]; human, in vivo): 2 to 6 h | half-life ([3]; human, in vivo): 15 h | logP ([12]; ivacaftor model input): 5.68

Cc1nn(C)cc1S(=O)(=O)NC(=O)c1ccc(-n2ccc(OCC(C)(C)C(F)(F)F)n2)nc1N1C[C@@H](C)CC1(C)C [elexacaftor]
effect on the activity of CYP3A (CYP3A [4]): no significant effect
